Measurements published in patent US8452543B2, “High throughput screening for antimicrobial dosing regimens” (priority 2005, dated 2013).
Values joined by “and” are separate entries in the source; they are usually repeats but may differ in a detail not shown here. Identical values can stand only once.

Columns and labels:
[1] = system: S. aureus ATCC 29213 and clinical isolates 55, 60, 25, 62; assay: Time-kill studies and pharmacodynamic modeling, gentamicin; assay type: cell-based, Staphylococcus aureus
Experimental: Time-kill studies were conducted with different and escalating meropenem concentrations. […] An overnight culture of the isolate was diluted 30-fold with pre-warmed Ca-MHB and incubated further at 35 8 C until reaching late log phase growth. The bacterial suspension was diluted with Ca-MHB accordingly based on absorbance at 630 nm; 15 mL of the suspension was transferred to 50 mL sterile conical flasks each containing 1 mL of an antimicrobial agent solution at 16 the target concentration. The final concentration of the bacterial suspension in each flask was 1×10^8 cfu/mL. The high inoculum used was to simulate the bacterial load in severe infection, and to allow resistant sub-population(s) to be present at baseline. The experiment was conducted for 24 h in a shaker water bath set at 35 8 C. Serial samples in duplicate were obtained from each flask over 24 h, at 0 (baseline), 2, 4, 8, 12, and 24 h, to characterize the effect of various meropenem concentrations on the total bacterial population. Prior to culturing the bacteria quantitatively, the bacterial samples (0.5 mL) were centrifuged at 10000 g for 15 min, and reconstituted with sterile normal saline to their original volumes in order to minimize drug carry-over effect. Total bacterial populations were quantified by spiral plating 10 serial dilutions of the samples ([…]) onto MHA plates. The media plates were incubated in a humidified incubator (35 8 C) for 18-24 h, and the bacterial density from each sample was determined by CASBA-4 colony scanner/software (Spiral Biotech, Bethesda, Md., USA).
In contrast to the conventional approach in which the final observed effects are modelled, information over time was utilized to develop a dynamic model system that would capture bacterial growth/killing rates. The starting point was a mathematical model describing the time course of bacterial burden [biological response, N(t)] under the influence of various antimicrobial agent concentrations C(t). The rate of change of bacteria over time was expressed as the difference between the intrinsic bacterial growth rate and the kill rate provided by the antimicrobial agent (Eq. 35). Based on previous studies, a linear bacterial growth rate was adopted. Additional model parameters were used to account for other physiological phenomena such as contact inhibition (using a maximum population size) and non-linear (sigmoidal) kill rate to account for target site saturation. Regrowth was attributed to adaptation, which was explicitly modelled as increase in the concentration necessary to achieve 50% maximal kill rate (C50k), using a saturable function of antimicrobial agent selective pressure (both meropenem concentration and time) (Eq. 36).
Time-kill modeling was performed for S. Aureus and gentamicin as for P. aeruginosa according to procedures and dynamic growth modeling in Examples 2-3.

P. aeruginosa ATCC 27853 [2] = assay: MIC/MBC, modified macrobroth dilution; assay type: cell-based, Pseudomonas aeruginosa; conditions: P. aeruginosa isolate (PA 27853)
Experimental: The final concentration of bacteria in each macrobroth dilution tube was approximately 5×10^5 cfu/ml of Ca-MHB. Serial twofold dilutions of meropenem were used. […] Samples (50 μl) from clear tubes and the cloudy tube with the highest drug concentration were plated on Mueller-Hinton agar (MHA) plates (Hardy Diagnostics, Santa Maria, Calif.). […] Drug carry-over effect was assessed by visual inspection of the distribution of colonies on media plates. The studies were conducted in duplicate and repeated at least once on a separate day.

[3] = system: S. aureus ATCC 29213 and clinical isolates 55, 60, 25, 62; assay: MIC/MBC of S. aureus isolates to gentamicin; assay type: cell-based, Staphylococcus aureus
Experimental: Minimum inhibitory concentration (MIC)/minimum bactericidal concentration (MBC) were determined in Ca-MHB using a modified macrobroth dilution method as described by the CLSI (10). The final concentration of bacteria in each macrobroth dilution tube was approximately 5×10^5 cfu/ml of Ca-MHB. […] Samples (50 μl) from clear tubes and the cloudy tube with the highest drug concentration were plated on Mueller-Hinton agar (MHA) plates (Hardy Diagnostics, Santa Maria, Calif.). […] Drug carry-over effect was assessed by visual inspection of the distribution of colonies on media plates. The studies were conducted in duplicate and repeated at least once on a separate day. […]

[4] = system: amikacin resistant A. baumannii isolates; assay: Resistance confirmation, repeat susceptibility testing, amikacin; assay type: cell-based, Acinetobacter baumannii; conditions: amikacin resistant isolates
S. aureus ATCC 29213 = assay: Hollow-fiber infection model, gentamicin; assay type: cell-based, Staphylococcus aureus
Experimental: The computer simulations were compared to experimental data from an in-vitro hollow fiber infection model with similar antimicrobial agent exposures (20). Basically the drug was injected directly into the central reservoir to achieve the peak concentration desired. Fresh (drug-free) growth medium (Ca-MHB) was continuously infused from the diluent reservoir into the central reservoir to dilute the drug in order to simulate drug elimination in humans. […] Bacteria were inoculated into the extracapillary compartment of the hollow-fiber cartridge (Fibercell Systems, Inc., Frederick, Md.); they are confined in the extracapillary compartment, but are exposed to the fluctuating drug concentration in the central reservoir by means of an internal circulatory pump in the bioreactor loop. The optional absorption compartment of the system was not used.

P. aeruginosa ATCC 27853 [5] = assay: Hollow fiber infection model, gentamicin; assay type: cell-based, Pseudomonas aeruginosa; conditions: Cmax/MIC of 30 every 12 h
Experimental: The media plates were incubated at 35° C. for up to 24 (total population) and 72 hours (sub-populations with reduced susceptibility), then bacterial density from each sample was enumerated visually. The theoretical lower limit of detection was 400 CFU/ml.

P. aeruginosa ATCC 27853 [6] = assay: Time-kill studies and best-fit model, gentamicin; assay type: cell-based, Pseudomonas aeruginosa; conditions: PA 27853
Experimental: A clinical relevant concentration range of gentamicin (from 0-32 mg/l) was used. […] The data were used as inputs to derive the best-fit model parameter estimates, as previously described (24, 17). The baseline inoculum (10^7 CFU/ml) was deemed to be dense enough to constitute a heterogeneous bacterial population. […] In Table 5: PA—P. aeruginosa, AB—A. baumannii, Kg—growth rate constant for bacterial population, Nmax—maximum population size, Kk—maximal kill rate constant for bacterial population, C50k—concentration to achieve 50% of maximal kill rate for bacterial population, H—sigmoidicity constant for bacterial population, β—maximal adaptation, and τ—rate of adaptation factor.

[7] = system: gentamicin resistant P. aeruginosa isolates; conditions: after serial passage on drug-free plates and storage at −70° C.

## gentamicin
[1]; S. aureus strain 25
  C50K: 3.18 mg/L
  H: 1.27
  β: 9,952
  τ: 0.33 µL/min/mg
[1]; S. aureus strain 55
  C50K: 2.58 mg/L
  H: 1.07
  β: 166.5
  τ: 29.7 µL/min/mg
[1]; S. aureus strain 60
  C50K: 1.05 mg/L
  H: 1.52
  β: 427.9
  τ: 46.2 µL/min/mg
[1]; S. aureus strain 62
  C50K: 0.65 mg/L
  H: 1.61
  β: 336.2
  τ: 119 µL/min/mg
[1]; S. aureus strain ATCC 29213
  C50K: 5.14 mg/L
  H: 0.75
  β: 14,620
  τ: 1.83 µL/min/mg
[1]; all five S. aureus isolates
  concentrations beyond which the rate of killing seemed to plateau: 4 to 8 times the MIC
[1]; gentamicin concentration increased from 0.5 to 4 times the MIC
  bactericidal activity: concentration dependent
P. aeruginosa ATCC 27853 [2]
  MBC: 2 mg/l and 2/2 mg/l
  MIC: 2 mg/l and 2/2 mg/l
[3]; S. aureus strain 25
  MBC: 2 μ/mL
  MIC: 1 μ/mL
[3]; S. aureus strain 55
  MBC: 2 μ/mL
  MIC: 0.5 μ/mL
[3]; S. aureus strain 60
  MBC: 2 μ/mL
  MIC: 1 μ/mL
[3]; S. aureus strain 62
  MBC: 1/1 μ/mL
  MIC: 1/1 μ/mL
[3]; S. aureus strain ATCC 29213
  MBC: 2 μ/mL
  MIC: 1 μ/mL
[4]
  cross-resistance: observed
S. aureus ATCC 29213; 3-times-daily dosing regimen
  microbiologic response with repeated dosing: sustained bacterial suppression over 5 days
S. aureus ATCC 29213; both dosing regimens (once daily and 3 times daily, identical daily doses)
  killing at 24 h: approximately 5 log
S. aureus ATCC 29213; once-daily dosing regimen, over the next 4 days
  microbiologic response with repeated dosing: regrowth was apparent
P. aeruginosa ATCC 27853 [5]
  microbial response: Sustained suppression of resistance emergence was achieved
P. aeruginosa ATCC 27853 [6]
  C50k: 0.72 mg/L
  H: 3.73
  Kk: 4.68 h⁻¹
  β: 42.54
  τ: 225 µL/min/mg
[7]
  stability of resistance: not stable
